According to patent US20110236359A1 (priority 2007, published 2011):
≈ marks a conversion by molar mass, not a printed value. Like-named read-outs stand apart in the source and are kept apart here. Positions of bridges follow the written chain, without caps; N, C: chain ends. Non-standard residues stand in square brackets, D forms with d. Residues, ends and D or L forms follow the SMILES beside them. *: point of attachment. Ileψ(thiazoline)Cys = CC[C@H](C)[C@H](N)C1=N[C@H](C(=O)*)CS1; dOrn = NCCC[C@@H](N)C(=O)O

What was measured:
[1] = system: Lactobacillus rhamnosus GG (ATCC 53103); test: Antibiotic MIC plates (resistance profile); format: cell-based; details: median of two repetitions
Excerpt: (§1) The protocol was adapted from Delgado et al. (2005). Minimum Inhibitory Concentration (MIC) Plate (# GPN3F) and Anaerobe MIC Plate (# AN02B) were used to determine the antibiotic sensitivity and resistance profile of MM19 and MM33 according to the instructions of the manufacturer (Trek Diagnostic Systems; Nova Century, Burlington, ON, Canada).
(§2) Lactococcus lactis subsp. lactis MM19, Pediococcus acidilactici MM33 and Lactobacillus rhamnosus GG (ATCC 53103) from frozen glycerol stock were first inoculated in Lactobacilli MRS and incubated at 37° C. for 18 h. 100 μl of this culture were further incubated under the same conditions. This second culture was then inoculated on a MRS agar plate and incubated at 37° C. for 48 h under anaerobic conditions using GasPak Plus system (BD BBL, Sparks, Md., USA).

[2] = system: Lactococcus lactis subsp. lactis MM19; test: Antibiotic MIC plates (resistance profile); format: cell-based; details: MM19, median of two repetitions
Excerpt: as §1, §2

[3] = system: Pediococcus acidilactici MM33; test: Antibiotic MIC plates (resistance profile); format: cell-based; details: median of two repetitions
Excerpt: as §1, §2

[4] = system: vancomycin-resistant Enterococcus (VRE); test: VRE intestinal colonization (infection) model; format: in vivo, CF-1 mice
Protocol: The tubes containing fresh stool samples, collected from individual mice, were weighted, so that the weight of the feces could be deduced. Then, all the feces were diluted in […] of sterile saline, homogenized with a pestle, and serially diluted 10-fold in 0.1% peptone water. Finally, […] of each dilution were inoculated on the following media: MRS agar for detection of total lactic acid bacteria (LAB), Rogosa SL agar for selective detection of Lactobacillus spp., Reinforced Clostridium Medium (RCM) for quantification of total anaerobic and mesophilic bacteria, Baird-Parker agar (BPA) for selective detection of Staphylococcus spp., MacConkey agar for selective enumeration of Enterobacteriaceae, Enterococcosel agar for selective quantification of total Enterococcus spp. and finally Enterococcosel agar+20 μg/ml of vancomycin (Sigma) for detection and enumeration of VRE. A volume of 100 μl of the undiluted sample was also plated. MRS, Rogosa and RCM plates were incubated in anaerobic jars at 37° C. for 72 h while BPA, MacConkey and both Enterococcosel agar plates were incubated under aerobic conditions at 37° C. for 48 h. When negative results were obtained for Enterococcosel agar+20 μg/ml of vancomycin after 48 h of incubation, the plates were allowed to incubate for another 24 h. For statistical purposes, a value in CFU per gram that was based upon the weight of individual specimens was assigned for faeces without microorganisms.
A VRE intestinal colonization (infection) model was adapted from Donskey et al. 25-30 g CF-1 female mice (Charles River) were used. Daily subcutaneous administration of clindamycin (1.4 mg/d) for five days was used to disrupt the intestinal microbiota to induce VRE infection. Three days after the end of clindamycin administration, gastric inoculation of 250 μl of an overnight culture of VRE in BHI broth was used to infect the mice. Approximately 10^8 viable VRE was administered to the mice. Since the beginning of the antibiotic therapy, all groups of LAB-treated mice received once daily […] of 10^10 CFU/ml of Lc. lactis subsp. lactis MM19, P. acidilactici MM33 or P. acidilactici MM33A previously washed twice in sterile PBS. The mice received the LAB until the eighth day after the infection. Bacitracin (Sigma) antibiotic was administrated orally once daily during three days following the mice infection with VRE as 600 units/d diluted in […] of sterile PBS. This treatment was then discontinued and replaced by PBS. Stool samples were collected before the antibiotic administration and 1, 3, 6, 8 and 12 days after the VRE infection. Fecal concentrations of total culturable VRE were analyzed using selective media. This experiment was repeated twice using a total of eight mice per experimental group.

[5] = Lacticaseibacillus rhamnosus, ATCC53103, L. rhamnosus GG, GPN3F plate, read-out: MIC
[6] = Lactococcus lactis, GPN3F plate, read-out: MIC
[7] = Lacticaseibacillus rhamnosus, ATCC53103, L. rhamnosus GG, ANO2 plate, read-out: MIC
[8] = Lactococcus lactis, ANO2 plate, read-out: MIC
[9] = Pediococcus acidilactici, MM33, MM33, ANO2 plate, read-out: MIC
[10] = Pediococcus acidilactici, MM33, MM33, GPN3F plate, read-out: MIC

Compound	MIC [1, 5] [µg/mL]	MIC [2, 6] [µg/mL]	MIC [1, 7] [µg/mL]	MIC [2, 8] [µg/mL]	MIC [3, 9] [µg/mL]	MIC [3, 10] [µg/mL]	further results
O=C(O)c1cn(C2CC2)c2cc(N3CCNCC3)c(F)cc2c1=O [CIP, Ciprofloxacin]	1 (≈ 3.02 µM)	2 (≈ 6.04 µM)	–	–	–	–	–
CC1(C)S[C@@H]2[C@H](NC(=O)[C@H](NC(=O)N3CCN(S(C)(=O)=O)C3=O)c3ccccc3)C(=O)N2[C@H]1C(=O)O [MEZ, Mezlocillin]	–	–	< 4	< 4	8 (≈ 14.8 µM)	–	–
CCN1CCN(C(=O)N[C@@H](C(=O)N[C@@H]2C(=O)N3[C@@H]2SC(C)(C)[C@@H]3C(=O)O)c2ccccc2)C(=O)C1=O [PIP, Piperacillin]	–	–	< 4	< 4	8 (≈ 15.5 µM)	–	–
Penicillin	–	–	–	–	–	–	MIC ([1]; L. rhamnosus GG, ANO2 plate): 0.5 µg/mL; MIC ([1]; L. rhamnosus GG, GPN3F plate): 0.5 µg/mL; MIC ([2]; ANO2 plate): 0.5 µg/mL; MIC ([2]; GPN3F plate): 0.25 to 0.5 µg/mL; MIC ([3]; MM33, ANO2 plate): 1 µg/mL; MIC ([3]; MM33, GPN3F plate): 0.5 µg/mL
Ampicillin/Sulbactam [A/S]	–	–	–	–	–	–	MIC ([3]; MM33, ANO2 plate): 4/2
CCC[C@@H]1C[C@@H](C(=O)N[C@@H]([C@H]2O[C@H](SC)[C@H](O)[C@@H](O)[C@H]2O)[C@H](C)Cl)N(C)C1 [CLI, Clindamycin]	< 0.12	0.25 (≈ 0.588 µM)	0.5 (≈ 1.18 µM)	0.5 (≈ 1.18 µM)	< 0.25	< 0.12	–
Oxacillin + 2% NaCl [OXA+]	–	–	–	–	–	–	MIC ([1]; L. rhamnosus GG, GPN3F plate): 0.25 to 0.5 µg/mL; MIC ([2]; GPN3F plate): 1 µg/mL; MIC ([3]; MM33, GPN3F plate): 2 µg/mL
C[C@H]1COc2c(N3CCN(C)CC3)c(F)cc3c(=O)c(C(=O)O)cn1c23 [LEVO, Levofloxacin]	2 to 4 (≈ 5.53 to 11.1 µM)	0.5 (≈ 1.38 µM)	–	–	–	> 8	–
C[C@@H](O)[C@H]1C(=O)N2C(C(=O)O)=C(SCCN=CN)C[C@H]12 [IMI, Imipenem]	–	–	2 (≈ 6.68 µM)	0.25 (≈ 0.835 µM)	0.5 (≈ 1.67 µM)	–	–
CC[C@H]1OC(=O)[C@H](C)[C@@H](O[C@H]2C[C@@](C)(OC)[C@@H](O)[C@H](C)O2)[C@H](C)[C@@H](O[C@@H]2O[C@H](C)C[C@H](N(C)C)[C@H]2O)[C@](C)(O)C[C@@H](C)C(=O)[C@H](C)[C@@H](O)[C@]1(C)O [ERY, Erythromycin]	< 0.25	< 0.25	–	–	–	< 0.25	–
CC1(C)S[C@@H]2[C@H](NC(=O)[C@H](N)c3ccccc3)C(=O)N2[C@H]1C(=O)O [AMP, Ampicillin]	1 (≈ 2.86 µM)	0.12 to 0.25 (≈ 0.343 to 0.715 µM)	1 (≈ 2.86 µM)	< 0.5	4 (≈ 11.4 µM)	2 (≈ 5.72 µM)	–
Piperacillin/Tazobactam [P/T]	–	–	–	–	–	–	MIC ([1]; L. rhamnosus GG, ANO2 plate): 1/4; MIC ([2]; ANO2 plate): 2/4; MIC ([3]; MM33, ANO2 plate): 8/4
Trimethoprim/Sulfamethoxazole [SXT]	–	–	–	–	–	–	MIC ([1]; L. rhamnosus GG, GPN3F plate): >4/76; MIC ([2]; GPN3F plate): >4/76; MIC ([3]; MM33, GPN3F plate): >4/76
CC[C@H](C)[C@H](N)C1=N[C@H](C(=O)N[C@@H](CC(C)C)C(=O)N[C@H](CCC(=O)O)C(=O)N[C@H](C(=O)N[C@H]2CCCCNC(=O)[C@H](CC(N)=O)NC(=O)[C@@H](CC(=O)O)NC(=O)[C@H](Cc3cnc[nH]3)NC(=O)[C@@H](Cc3ccccc3)NC(=O)[C@H]([C@@H](C)CC)NC(=O)[C@@H](CCCN)NC2=O)[C@@H](C)CC)CS1 [Bacitracin] ({Ileψ(thiazoline)Cys}-L[dE]IK[dOrn]I[dF]H[dD]N; lactam 4-C)	–	–	–	–	–	–	Mice colonized with VRE (%) ([4]; 0 days after VRE infection): 0%; Mice colonized with VRE (%) ([4]; 1 day after VRE infection): 100%; Mice colonized with VRE (%) ([4]; 3 days after VRE infection): 0%; Mice colonized with VRE (%) ([4]; 6 days after VRE infection): 100%; Mice colonized with VRE (%) ([4]; 8 days after VRE infection): 100%; Mice colonized with VRE (%) ([4]; 12 days after VRE infection): 100%; VRE population (in words) ([4]; after the treatment was discontinued): reappeared; Level of VRE in feces (in words) ([4]; day 3, 600 units/d orally for three days after infection): undetectable level
CN(C)[C@@H]1C(O)=C(C(N)=O)C(=O)[C@@]2(O)C(O)=C3C(=O)c4c(O)cccc4[C@@](C)(O)[C@H]3C[C@@H]12 [TET, Tetracycline]	< 2	< 2	1 (≈ 2.25 µM)	0.375 (≈ 0.844 µM)	> 8	> 16	–
C[C@@H](O)[C@H]1C(=O)N2C(C(=O)O)=C(S[C@@H]3CN[C@H](C(=O)N(C)C)C3)[C@H](C)[C@H]12 [MERO, Meropenem]	–	–	8 (≈ 20.9 µM)	< 0.5	2 (≈ 5.22 µM)	–	–
CO/N=C(\C(=O)N[C@@H]1C(=O)N2C(C(=O)O)=C(CSc3nc(=O)c(=O)[nH]n3C)CS[C@H]12)c1csc(N)n1 [AXO, Ceftriaxone]	32 to 64 (≈ 57.7 to 115 µM)	< 8	–	–	–	16 (≈ 28.9 µM)	–
Quinupristin/Dalfopristin [SYN]	–	–	–	–	–	–	MIC ([1]; L. rhamnosus GG, GPN3F plate): 1 to 2 µg/mL; MIC ([2]; GPN3F plate): 4 µg/mL; MIC ([3]; MM33, GPN3F plate): 1 µg/mL
Amoxicillin/Clavulanic acid [AUG]	–	–	–	–	–	–	MIC ([3]; MM33, ANO2 plate): 4/2
Cc1ncc([N+](=O)[O-])n1CCO [MRD, Metronidazole]	–	–	> 16	> 16	> 16	–	–
CO[C@@]1(NC(=O)C2SC(=C(C(N)=O)C(=O)O)S2)C(=O)N2C(C(=O)O)=C(CSc3nnnn3C)CS[C@@H]21 (stereo partly drawn) [TANS, Cefotetan]	–	–	> 64	> 64	> 64	–	–
CC(=O)NC[C@H]1CN(c2ccc(N3CCOCC3)c(F)c2)C(=O)O1 [LZD, Linezolid]	1 to 2 (≈ 2.96 to 5.93 µM)	2 (≈ 5.93 µM)	–	–	–	4 to 8 (≈ 11.9 to 23.7 µM)	–
[H]/N=C(/N)N[C@H]1[C@H](O)[C@@H](O)[C@H](O[C@@H]2O[C@@H](C)[C@](O)(C=O)[C@H]2O[C@@H]2O[C@@H](CO)[C@H](O)[C@@H](O)[C@@H]2NC)[C@@H](N/C(N)=N\[H])[C@@H]1O [STR, Streptomycin]	< 1000	< 1000	–	–	–	< 1000	–
CO[C@H]1/C=C/O[C@@]2(C)Oc3c(C)c(O)c4c(O)c(c(/C=N/N5CCN(C)CC5)c(O)c4c3C2=O)NC(=O)/C(C)=C\C=C\[C@H](C)[C@H](O)[C@@H](C)[C@@H](O)[C@@H](C)[C@H](OC(C)=O)[C@@H]1C [RIF, Rifampin]	< 0.5	> 4	–	–	–	0.5 to 1 (≈ 0.608 to 1.22 µM)	–
Gentamicin	–	–	–	–	–	–	MIC ([1]; L. rhamnosus GG, GPN3F plate): <2 µg/mL; MIC ([2]; GPN3F plate): 2 to 4 µg/mL; MIC ([3]; MM33, GPN3F plate): <2 µg/mL
O=C(N[C@H](CO)[C@H](O)c1ccc([N+](=O)[O-])cc1)C(Cl)Cl [CHL, Chloramphenicol]	–	–	8 (≈ 24.8 µM)	4 (≈ 12.4 µM)	16 (≈ 49.5 µM)	–	–
COc1c(N2CCNC(C)C2)c(F)cc2c(=O)c(C(=O)O)cn(C3CC3)c12 (stereo not drawn) [GAT, Gatofloxacin]	–	–	–	–	–	–	MIC ([1]; L. rhamnosus GG, GPN3F plate): <1 µg/mL; MIC ([2]; GPN3F plate): <1 µg/mL; MIC ([3]; MM33, GPN3F plate): <1 µg/mL
CCCCCCCCCC(=O)N[C@@H](Cc1c[nH]c2ccccc12)C(=O)N[C@H](CC(N)=O)C(=O)N[C@@H](CC(=O)O)C(=O)N[C@@H]1C(=O)NCC(=O)N[C@@H](CCCN)C(=O)N[C@@H](CC(=O)O)C(=O)N[C@H](C)C(=O)N[C@@H](CC(=O)O)C(=O)NCC(=O)N[C@H](CO)C(=O)N[C@@H]([C@H](C)CC(=O)O)C(=O)N[C@@H](CC(=O)c2ccccc2N)C(=O)O[C@@H]1C [DAP, Daptomycin]	2 (≈ 1.23 µM)	0.5 to 1 (≈ 0.309 to 0.617 µM)	–	–	–	1 (≈ 0.617 µM)	–
CO[C@@]1(NC(=O)Cc2cccs2)C(=O)N2C(C(=O)O)=C(COC(N)=O)CS[C@@H]21 [FOX, Cefoxitin]	–	–	> 32	> 32	> 32	–	–
